Our source for the GI50 and TGI values is PubChem BioAssay (NCI).

Holding throughout (experiment): growth of human tumour cells (NCI), 48 h
Assay [1] relates to COLO 205 colon.
Assay [2] deals with M14 melanoma.
The subject of assay [3] is UACC-62 melanoma.
Assay [4] deals with NCI-H23 lung.
Assay [5] has as its system EKVX NSCLC.
Assay [6] concerns NCI/ADR-RES ovarian.
In assay [7] the test system is NCI-H226 lung.
The test system of assay [8] is SNB-19 CNS.
The subject of assay [9] is DU-145 prostate.
Assay [10] relates to MOLT-4 leukemia.

Values joined by “and” are separate entries in the source; they are usually repeats but may differ in a detail not shown here. Equal entries are not always repeated.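 Assay format: 96-well plates, 48-hour exposure. GI50 marks 50% less growth. TGI denotes the concentration required for complete inhibition of growth.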 A value given as a limit tells only on which side of the number the result lay.

With `COc1ccc2cc3[n+](cc2c1OC)CCc1cc2c(cc1-3)OCO2`, the GI50 in assay [1] was 7.46 µM [middle of 5 runs]; in assay [2], 16.9 µM; in assay [3] it was 7.24 µM; in [4], 6.34 µM; in assay [6], > 100 µM and 323 µM; in assay [8], 0.831 µM. The TGI in assay [1] was 33.3 µM [middle of 5 runs]; in assay [5] it was > 100 µM and 175 µM; in assay [6] it was over 325 µM; in assay [7], > 100 µM and 94.9 µM and 67.5 µM; in assay [8] it was > 100 µM and > 77.2 µM and 145 µM; in assay [9], over 100 µM.
Consider `Cc1[nH]n(-c2ccc(S(=O)(=O)O)cc2)c(=O)c1N=Nc1ccccc1`, for which the TGI in assay [1], in [2], in assay [3], in [10], in [4] and in [5] was over 100 µM in each case. Also, the TGI in assay [6], in assay [8] and in assay [9] was over 100 µM each time.
Regarding `O=C1/C(=C/c2ccc([N+](=O)[O-])o2)Oc2ccccc21`, the GI50 in assay [1] was 1.35 µM; in assay [2], 1.69 µM; in assay [3], 1.47 µM; in assay [10] it was 1350 nM; in assay [4] it was 1.95 µM; in assay [6], 3.08 µM. For the same molecule, the GI50 in [7] is 1.94 µM; in assay [8] it was 5.06 µM; in assay [9], 1.91 µM. For the same molecule, the TGI in assay [1] turned out to be 2.91 µM; in [2] it was 3.88 µM; in assay [3], 2.93 µM; in [10], 3.7 µM; in assay [4], 5.08 µM; in assay [6], 11.7 µM. In addition, the TGI stood at 4.98 µM in [7], 18.6 µM in assay [8] and 3.73 µM in assay [9].
For `COc1cc(-n2cc(-c3ccc(F)cc3)[nH]c2=S)cc(OC)c1OC`, the GI50 in [1] was over 100 µM; in [3], over 100 µM; in assay [10] it was over 100000 nM; in [4], over 100 µM; in assay [5], over 100 µM; in assay [6], over 100 µM. Besides, the GI50 in assay [7] was over 100 µM; in assay [8] it was 36.6 µM; in assay [9], over 100 µM. Moreover, the TGI in assay [1], in assay [3], in [10], in assay [4], in [5] and in assay [6] was over 100 µM throughout. The TGI in assay [7], in assay [8] and in assay [9] was over 100 µM each time.
`O=C1CSC(=S)N1Cc1cccnc1`: the GI50 is 5.59 µM in [1]; 15.3 µM in [2]; 11.3 µM in assay [3]; 11600 nM in assay [10]; 15.1 µM in [4]; 24 µM in [6]. Further, the GI50 in assay [7] is 42.3 µM; in assay [8], 47.8 µM; in [9], 2.4 µM. Moreover, the TGI was 21.1 µM in assay [1]; 39.4 µM in assay [2]; 24.7 µM in assay [3]; over 100 µM in [10]; 48 µM in assay [4]; over 100 µM in assay [6]. The TGI in assay [7] is over 100 µM; in [8] it was over 100 µM; in [9], 5.71 µM.
Consider `CCCCCCCCCCCCSC(=NC)NC`, for which the GI50 in assay [3] is 1.68 µM; in assay [10], 2010 nM; in assay [4] it was 2.2 µM; in assay [5], 3.71 µM; in assay [6], 2.06 µM; in [8] it was 3.06 µM. Also, in assay [9], the GI50 is 3.12 µM. The TGI in assay [3] stood at 3.21 µM; in assay [10], 5.05 µM; in assay [4], 4.71 µM; in assay [5] it was 17.6 µM; in [6] it was 4.53 µM; in assay [8], 17.6 µM. In [9], this molecule returned a TGI of 12.3 µM.
As to `Cc1cc(NCCCCNc2ccnc3cc(Cl)ccc23)nc(Nc2ccc(C(=O)N3CCCC3)cc2)n1`, the GI50 in assay [1] was 1.81 µM; in assay [2], 1.96 µM; in assay [10], 2810 nM; in assay [4], 3.7 µM; in assay [5], 4.28 µM; in assay [6] it was 16.4 µM. The GI50 in [7] was 5.13 µM; in [8] it was 4.5 µM; in assay [9] it was 3.49 µM. Further, the TGI in assay [1] came out at 3.56 µM; in assay [2] it was 3.87 µM; in assay [10], 11.6 µM; in [4] it was 15.8 µM; in assay [5] it was 15.6 µM; in assay [6], 72.8 µM. Further, the TGI in assay [7] was 18.2 µM; in assay [8], 18.1 µM; in assay [9] it was 13.4 µM.
On to `Cc1nc(N)sc1N=Nc1cc(Cl)c([N+](=O)[O-])cc1Cl`, for which the TGI is over 100 µM in [1]; over 100 µM in [2]; 36.1 µM in assay [3]; 22.4 µM in assay [10]; 37.7 µM in assay [5]; 70.4 µM in assay [6]. Moreover, the TGI was 44.4 µM in assay [7], over 100 µM in assay [8] and 32.5 µM in [9].
`Oc1ccc2ccccc2c1C(c1ccc(Cl)cc1)c1c(O)ccc2ccccc12`: the TGI is 4.49 µM in assay [1]; 15.2 µM in [2]; 15.1 µM in assay [3]; 17.5 µM in assay [10]; 19.1 µM in assay [4]; 7.58 µM in [5]. The TGI was 9.46 µM in assay [6], 19 µM in assay [8] and 12.4 µM in assay [9].
With `Cc1cc(O)ccc1O`, the GI50 in assay [1] is 23.7 µM; in [3], 17.9 µM; in assay [10], 5240 nM; in assay [4] it was 39.4 µM; in [5], 36.9 µM; in assay [6], 23.5 µM. Besides, the GI50 in assay [7] is 55.6 µM; in assay [8], 41.4 µM; in assay [9], 17.4 µM. Further, the TGI in assay [1] was 47.6 µM; in assay [3], 81.3 µM; in [10], 37.7 µM; in assay [4] it was over 100 µM; in [5] it was over 100 µM; in assay [6] it was over 100 µM. The values for the TGI in assay [7], in assay [8] and in assay [9] were over 100 µM, over 100 µM and 31.6 µM, respectively.
